In patent publication US20050010126A1, “Assessment of concentration of inhalational compounds in the brain” (priority 2001, published 2005):

What was measured:
[1] = alveolar membrane factor M of an inhalational compound; assay type: in vivo, patients
From the text: As the gas penetrates the alveolar membrane and enters the pulmonary capillary blood flow, it must follow the Fick's principal. See Katzung, R. G. (1998) Basic principles, introduction in basic and clinical pharmacology Appleton-Lange p 5. The Fick's principal defines the rate of penetrating the alveolar membrane as: DAk/x (Ci-Cb') D is a diffusion constant, A is the area of the membrane (proportional to the pulmonary capillary flow or cardiac output), k is a solubility coefficient, x is the thickness of the membrane, Ci is an inspired compound concentration, and Cb' is the mixed venous compound concentration. Assuming that the pulmonary capillary flow or the cardiac output is constant, then, for a given inhalational compound, DAk/x is a constant. This constant DAk/x is defined as a membrane factor, M, which varies from one inhalational compound to another. […] Since the membrane factor may vary slightly among patients, a more precise determination of the membrane factor can be performed as described below. The rate of penetrating the alveolar membrane DAk/x (Ci-Cb') can be expressed as: M(Ci-Cb'), in which M is DAk/x. When measuring an uptake of an inhalational compound-containing gas in each breathing cycle, the rate of the uptake is a function of a difference between the inspired concentration (Ci) and the expired concentration (Ce). The difference can be expressed as: Ci-Ce. Ci-Ce. and M (Ci-Cb') both represent the rate of uptake of an inhalational compound: Ci-Ce=M(Ci-Cb'), or M=(Ci-Ce)/(Ci-Cb'). During the initial introduction of an inhalational compound (before the FRC is filled with the gas), the membrane factor M for an individual can be approximated by assuming Cb'=0: M=(Ci-Ce)/Ci=1-(Ce/Ci).

[2] = assessment of mixed venous and brain anesthetic concentration from inspired and expired concentrations
From the text: At the stage of anesthesia (after the FRC is filled with the gas), the equation: Ci′−Ce′=M (Ci′−Cb′) can be used to calculate the compound concentration in the mixed venous blood (Cb′), in which Ci′ and Cb′ are the inspired compound concentration and the expired compound concentration, respectively: Cb′=[Ci′(M−1)+Ce′]/M.
As discussed above, Cb=(A+J)/2 and (A+J)/2=(Ce′+2Cb′)/3 or (Ce′+3Cb′)/4, the compound concentration in the brain (Cb) can be expressed as: Cb=(Ce′+2Cb′)/3 or (Ce+3Cb′)/4.
Thus, with measurements of the expired compound concentration (Ce′) and the mixed venous compound concentration (Cb′), the compound concentration in the brain (Cb) can be readily obtained. Below are two examples of how to assess brain anesthetic concentrations by this method.
A tube is connected to the circle system of an anesthesia machine consisting of gas flowmeters, a compound vaporizer, supply of oxygen, air and nitrous oxide gas, and a ventilator (e.g., Detex-Ohmeda, Finland, or Drager, Germany). The gas is then delivered to the patient by the anesthesia machine. […] Near the connection between the circle system and the tube, a side arm sampling site is linked to a gas monitoring equipment (e.g., an infra-red monitor or a mass spectrometer). Typically, a sampling speed is 200 mL/min. […] A more precise determination of M is performed at the end of 3 min, when 85-95% of the FRC has been filled with the gas.

[3] = general value for the compound, for most patients

FC(F)(F)C(Cl)Br (stereo not drawn) [halothane]
membrane factor M (DAk/x) ([1]; human, in vivo): 0.5

FC(F)OC(Cl)C(F)(F)F (stereo not drawn) [isoflurane]
membrane factor M (DAk/x) ([1]; human, in vivo): 0.4

COC(F)(F)C(Cl)Cl [methoxyflurane]
membrane factor M (DAk/x) [1, 3]: 0.8

FCOC(C(F)(F)F)C(F)(F)F [sevoflurane]
brain concentration (Cb) = (Ce'+2Cb')/3 ([2]; human, in vivo, 30 min): 1.77%
concentration in the mixed venous blood (Cb') ([2]; human, in vivo, 30 min): 1.16%
patient's membrane factor M = (Ci-Ce)/Ci ([1]; human, in vivo): 0.214

FC(F)OC(F)C(F)(F)F (stereo not drawn) [desflurane]
concentration in the brain (Cb) = (Ce'+3Cb')/4 ([2]; desflurane, inspired 6.2%, expired 5.4%, M 0.2): 3.0%
patient's membrane factor M = (Ci-Ce)/Ci ([1]; desflurane, inspired 6%, expired 4.8% at 3-4 minutes (85-95% of FRC filled)): 0.2
membrane factor M (DAk/x) [1, 3]: 0.2
